Results reported in PMC6389993, “Quercetin and its metabolite isorhamnetin promote glucose uptake through different signalling pathways in myotubes” (Scientific Reports, 2019).

Experiments:
Format in all cases: cell-based, rat
JAK2 = test: Phosphorylation of JAK2 in L6 myotubes (western blot); conditions: 15 min; for phosphorylation of JAK2: higher concentrations (1 μM and 10 μM)
Procedure: (§1) For in vitro cell culture experiments, after serum starvation for 18 h, myotubes were treated with various concentrations of quercetin or isorhamnetin (0.1–10 nM) for 15 min; DMSO (final 0.1%) was used as a vehicle control. As positive controls, 100 nM insulin, 1 mM AICAR, 10 nM leptin, or 100 ng/mL IL-15 were used for insulin, AMPK, JAK2/STAT, or JAK3/STAT signalling pathways, respectively. Cells were treated with insulin or AICAR for 15 min, leptin for 60 min, or IL-15 for 24 h. Whole protein and plasma membrane fractions were prepared from myotubes, as previously described. For in vivo experiment, plasma membrane fraction and tissue lysate of soleus muscle were prepared.
Translocation of GLUT4 to the plasma membrane, as well as expression and phosphorylation levels of GLUT4-related regulators were estimated by western blot analysis. Briefly, equal amounts of proteins were separated by sodium dodecyl sulfate-polyacrylamide gel electrophoresis (SDS-PAGE). Separated proteins were transferred onto a polyvinylidene fluoride membrane and nonspecific binding sites were blocked using either Blocking One (to detect unphosphorylated proteins) or Blocking One-P (to detect phosphoproteins). […] Specific immune complexes were developed using ImmunoStar® LD and detected with an ATTO Light-Capture II Western Blotting Detection System. Individual band density was calculated by ImageJ and normalized to the control. […]
59 complexes were developed using ImmunoStar® LD and detected with an ATTO Light-Capture
60 Ⅱ Western Blotting Detection System. Individual band density was calculated by ImageJ and […]

L6 myotubes = test: Enzymatic 2DG glucose uptake assay in L6 myotubes; conditions: 4 h; for glucose uptake, shape of concentration dependence: 0.01–10^4 nM
Procedure: (§2) In vitro cultured cell experiments were conducted according to a previously described protocol[6],[14]. Briefly, L6 myoblasts derived from rat skeletal muscle and of less than 40 passages were maintained in MEM supplemented with 10% foetal bovine serum (FBS) and antibiotics (100 U/ml penicillin and 100 μg/ml streptomycin) at 37 °C under a humidified atmosphere condition of 5% CO2 and 95% air. In each experiment, cells (2.2 × 10^4 cells/ml) were seeded into 96-well plates or 60-mm dishes for induction of differentiation into mature myotubes. After reaching confluence, cells were supplemented with differentiation medium containing 2% FBS and the same antibiotics for 7 days. Cells were used for each experiment after morphological analysis of differentiation status using phase-contrast microscopy. To explore the contribution of CaMKKβ or intracellular-free calcium ions in quercetin- and isorhamnetin-stimulated GLUT4 translocation, L6 cells were incubated in the presence or absence of 10 μM STO-609 and 25 μM […], respectively, for 30 min prior to treatment with either quercetin or isorhamnetin.
After serum starvation by incubating L6 myotubes in MEM with 0.2% BSA for 18 h, cells were treated with quercetin and isorhamnetin at the specified concentration (0.01 nM–10 μM) for 4 h in 0.2% BSA-containing medium. DMSO and insulin (100 nM) were used as a vehicle control and positive control, respectively. Glucose uptake was measured by an enzymatic 2DG uptake assay using myotubes on a 96-well plate as previously described.

GLUT4 [1] = test: GLUT4 translocation in L6 myotubes after siRNA knockdown of AMPKα, JAK2 or JAK3; conditions: for compound-induced GLUT4 translocation after siRNA for AMPK: siAMPKα 50 nM 48 h, 1 mM AICAR; for compound-induced GLUT4 translocation after siRNA for AMPK / compound-induced GLUT4 translocation after siRNA for JAK2: 1 nM quercetin or isorhamnetin; for compound-induced GLUT4 translocation after siRNA for JAK2: siJAK2 50 nM 48 h, 10 nM leptin
Procedure: as §1
(§3) Translocation of GLUT4 to the plasma membrane, as well as expression and phosphorylation levels of GLUT4-related regulators were estimated by western blot analysis. Briefly, equal amounts of proteins were separated by sodium dodecyl sulfate-polyacrylamide gel electrophoresis (SDS-PAGE). Separated proteins were transferred onto a polyvinylidene fluoride membrane and nonspecific binding sites were blocked using either Blocking One (to detect unphosphorylated proteins) or Blocking One-P (to detect phosphoproteins). The membrane was incubated overnight with an appropriate primary antibody for GLUT4 (1:5000), IR (1:10000), p-IRS1 (1:5000), IRS1 (1:5000), p-PI3K (1:5000), PI3K (1:10000), p-Akt (1:5000), Akt (1:10000), p-AMPKα (1:5000), AMPKα (1:10000), p-ACC (1:5000), ACC (1:10000), p-LKB1 (1:5000), LKB1 (1:10000), p-JAK2 (1:5000), JAK2 (1:5000), p-JAK3 (1:5000), JAK3 (1:10000), p-STAT1 (1:5000), STAT1 (1:10000), p-STAT3 (1:5000), STAT3 (1:10000), p-STAT5 (1:5000), STAT5 (1:10000), or β-actin (1:20000), and subsequently treated with the corresponding horseradish peroxidase-conjugated secondary antibody (1:50000) for 1 h. Specific immune complexes were developed using ImmunoStar® LD and detected with an ATTO Light-Capture II Western Blotting Detection System. Individual band density was calculated by ImageJ and normalized to the control.
Mature myotubes were cultured in antibiotic-free medium and transfected with siRNA at a final concentration of 50 nM using Lipofectamine RNAiMAX transfection reagent according to the manufacturer’s instructions. In brief, mature myotubes were transfected with siRNA in Opti-MEM for 48 h. Subsequently, the medium was changed to fresh Opti-MEM and cells were treated with the indicated concentrations of quercetin or isorhamnetin.

AMPK = test: Phosphorylation of AMPK in L6 myotubes (western blot); conditions: 15 min
Procedure: as §2, §1, §3
42 after morphological analysis of differentiation status using phase-contrast microscopy.
43 Preparation of whole protein and plasma membrane fractions After serum starvation
44 for 18 h, myotubes were treated with various concentrations of quercetin or isorhamnetin (1–
45 10 μM) for 15 min; DMSO (final 0.1%) was used as a vehicle control. As positive controls, […]

GLUT4 [2] = test: GLUT4 translocation to the plasma membrane in L6 myotubes (western blot); conditions: for GLUT4 translocation to the plasma membrane / expression level of GLUT4: 15 min; for expression level of GLUT4: 0.1–10 nM
Procedure: as §2, §1, §3

LKB1 = test: Phosphorylation of LKB1 in L6 myotubes (western blot); conditions: 0.1–10 nM, 15 min
Procedure: as §1
(§4) Translocation of GLUT4 to the plasma membrane, as well as expression and phosphorylation levels of GLUT4-related regulators were estimated by western blot analysis. Briefly, equal amounts of proteins were separated by sodium dodecyl sulfate-polyacrylamide gel electrophoresis (SDS-PAGE). […] Specific immune complexes were developed using ImmunoStar® LD and detected with an ATTO Light-Capture II Western Blotting Detection System. Individual band density was calculated by ImageJ and normalized to the control.

PI3K = test: Phosphorylation of PI3K in L6 myotubes (western blot); conditions: 15 min
Procedure: as §1, §4

[3] = 0.01 nM to 1 nM, compared with vehicle (DMSO)
[4] = higher concentrations (1 μM and 10 μM)

SMILES | phosphorylation of JAK2 (JAK2) | glucose uptake (L6 myotubes; [3]) | glucose uptake (L6 myotubes; 1 nM) | glucose uptake (L6 myotubes; 10 nM) | glucose uptake (L6 myotubes; 100 nM) | glucose uptake (L6 myotubes; 1 μM) | glucose uptake (L6 myotubes; 10 μM) | glucose uptake, shape of concentration dependence (L6 myotubes) | compound-induced GLUT4 translocation after siRNA for AMPK (GLUT4 [1]) | compound-induced GLUT4 translocation after siRNA for JAK2 (GLUT4 [1]) | AMPK phosphorylation (AMPK; [4]) | GLUT4 translocation to the plasma membrane (GLUT4 [2]; 1 nM) | GLUT4 translocation to the plasma membrane (GLUT4 [2]; 10 nM) | expression level of GLUT4 (GLUT4 [2]) | LKB1 phosphorylation (LKB1) | other results
O=c1c(O)c(-c2ccc(O)c(O)c2)oc2cc(O)cc(O)c12 [quercetin, 3,3′,4′,5,7-pentahydroxy flavone] | induced phosphorylation of JAK2 | increased glucose uptake in a dose-dependent manner | significant increase | decreased glucose uptake | decreased glucose uptake | significant increase | significant increase | biphasic increase in glucose uptake | almost completely abolished | without affecting | induced phosphorylation of AMPK | significantly increased GLUT4 translocation | significantly increased GLUT4 translocation | remained unchanged | neither quercetin nor isorhamnetin increased LKB1 phosphorylation | glucose uptake (L6 myotubes; 0.1 nM): significant increase; AMPK phosphorylation (AMPK; 0.1 nM and 1 nM): promoted AMPK phosphorylation; GLUT4 translocation to the plasma membrane (GLUT4 [2]; 0.1 nM): significantly increased GLUT4 translocation; time-dependent changes in GLUT4 translocation (GLUT4 [2]; 1 nM, monitored 0–240 min): bell-shaped curve; phosphorylation of PI3K (PI3K; 0.1–10 nM): significantly increased phosphorylation of PI3K
COc1cc(-c2oc3cc(O)cc(O)c3c(=O)c2O)ccc1O [isorhamnetin, 3′-O-methyl quercetin] | induced phosphorylation of JAK2 | increased glucose uptake in a dose-dependent manner | significant increase | decreased glucose uptake | decreased glucose uptake | significant increase | significant increase | biphasic increase in glucose uptake | failed to suppress | abolished | induced phosphorylation of AMPK | significantly increased GLUT4 translocation | significantly increased GLUT4 translocation | remained unchanged | neither quercetin nor isorhamnetin increased LKB1 phosphorylation | JAK2 phosphorylation (JAK2; physiological concentration range (0.1–10 nM)): effectively promoted; compound-induced GLUT4 translocation after siRNA for JAK3 (GLUT4 [1]; siJAK3 50 nM 48 h, 1 nM isorhamnetin, not significant): slightly decreased; phosphorylation of PI3K (PI3K; 0.1 nM): increased PI3K phosphorylation
